For the series, the system named is LHPP gene. The series is described as follows: High-throughput screening of saRNAs targeting LHPP promoter: LHPP mRNA by one-step RT-qPCR in Huh7 cells. Format: cell-based, human. Particulars: 10 nM saRNA, 72 hours, relative to control (Mock). Here is the method:
Human liver cancer cell line Huh7 was cultured in DMEM medium (Gibco), containing 10% of calf serum (Sigma-Aldrich) and 1% of penicillin/streptomycin (Gibco). The cells were cultured at 5% CO2 and 37° C. According to the instructions provided by the manufacturer, RNAiMax (Invitrogen, Carlsbad, Calif.) was used to transfect small activating RNAs at a concentration of 10 nM (unless otherwise specified).
At the end of transfection, the media were discarded, and each well was washed with 150 μL of PBS once. After discarding the PBS, 50 μL of cell lysis buffer (Takara) was added to each well and incubated at room temperature for 5 min. 1 μL of the resulted cell lysis was taken from each well and analyzed by qPCR on an ABI 7500 fast real-time PCR system (Applied Biosystems) using a one-step TB Green™ PrimeScrip™ RT-PCR kit II (Takara, RR086A) Each transfection sample was repeatedly amplified in 3 replicate wells.
Reaction conditions were as follows: reverse transcription reaction (stage 1): 5 min at 42° C., 10 s at 95° C.; PCR reaction (stage 2): 5 s at 95° C., 20 s at 60° C., 45 cycles of amplification. HPRT1 and TBP were used as internal reference genes. PCR primers used for amplifying LHPP, HPRT1 and TBP genes are shown in Table 2, wherein LHPP was amplified using the LHPP F1/R1 primer pair.
To calculate the relative expression level (Erel) of LHPP (target gene) in an saRNA-transfected sample relative to control treatment (Mock), the Ct values of the target gene and the two internal reference genes were substituted into formula 1
Erel=2^(CtT^m^-CtT^s^)/((2^(CtR1^m^-CtR1^s^)*2^(CtR2^m^-CtR2^s^))^(1/2))
wherein CtTm was the Ct value of the target gene from the control (Mock) sample; CtTs was the Ct value of the target gene from the saRNA-treated sample; CtR1m was the Ct value of the internal reference gene 1 from the control (Mock) sample; CtR1s was the Ct value of the internal reference gene 1 from the saRNA-treated sample; CtR2m was the Ct value of the internal reference gene 2 from the control (Mock) sample; and CtR2s was the Ct value of the internal reference gene 2 from the saRNA-treated sample.
In order to obtain saRNAs capable of activating LHPP transcription, Huh7 cells were transfected with each of the aforementioned 290 saRNAs with a transfection concentration of 10 nM, and 72 hours later, according to the same method as described above, the cells were lysed and analyzed by one-step RT-qPCR to obtain the relative (compared with the control (Mock)) expression level of LHPP gene for each saRNA-treated sample. […] The observed maximum activation and maximum inhibition is 3.46 fold and 0.49 fold, respectively, saRNAs with activating activity are referred to as activating saRNAs, and the saRNAs with inhibiting activity are referred to as inhibiting saRNAs.

These results are taken from patent publication US20220096516A1, “OLIGONUCLEOTIDE MOLECULE AND APPLICATION THEREOF IN TUMOR THERAPY” (Ractigen Therapeutics, priority 2019, published 2022).

d = 2'-deoxy (DNA); r = 2'-OH (RNA)

Regarding “RAG7-189: saRNA duplex; sense CUUCUUGUCUCAAUUUGCCTT (SEQ ID NO: 35), antisense GGCAAAUUGAGACAAGAAGTT (SEQ ID NO: 199) (sugars from the 5' end r19 d2, backbone not given here)”, the “Fold of changes in relative LHPP mRNA expression level” value is reported as 1.47 fold and the “Fold of changes in relative LHPP mRNA expression level (log2)” value came to 0.56 log2.
For the substance “RAG7-96: saRNA duplex; sense GAAAAGGACACCGUUUCAGTT (SEQ ID NO: 105), antisense CUGAAACGGUGUCCUUUUCTT (SEQ ID NO: 269) (sugars from the 5' end r19 d2, backbone not given here)”, the “Fold of changes in relative LHPP mRNA expression level” value is on record as 1.21 fold and the “Fold of changes in relative LHPP mRNA expression level (log2)” value is given as 0.27 log2.
Taken in the same sequence, the figures for “RAG7-696: saRNA duplex; sense CCAGGUCCUAUGCAUCCUCTT (SEQ ID NO: 17), antisense GAGGAUGCAUAGGACCUGGTT (SEQ ID NO: 181) (sugars from the 5' end r19 d2, backbone not given here)” were 1.58 fold and 0.66 log2.
Taken in the same sequence, the figures for “RAG7-144: saRNA duplex; sense CUGCUUUUCCUGCUCUUUGTT (SEQ ID NO: 18), antisense CAAAGAGCAGGAAAAGCAGTT (SEQ ID NO: 182) (sugars from the 5' end r19 d2, backbone not given here)” were 1.56 fold and 0.64 log2.
The matching figures for “RAG7-721: saRNA duplex; sense GUGAUAGUCCCGUUUUCUUTT (SEQ ID NO: 133), antisense AAGAAAACGGGACUAUCACTT (SEQ ID NO: 297) (sugars from the 5' end r19 d2, backbone not given here)”: 1.16 fold and 0.21 log2.
“RAG7-704: saRNA duplex; sense UUCUCAGCCCAGGUCCUAUTT (SEQ ID NO: 112), antisense AUAGGACCUGGGCUGAGAATT (SEQ ID NO: 276) (sugars from the 5' end r19 d2, backbone not given here)”: the “Fold of changes in relative LHPP mRNA expression level” value is 1.19 fold and the “Fold of changes in relative LHPP mRNA expression level (log2)” value is 0.26 log2.
The matching figures for “RAG7-187: saRNA duplex; sense UCUUGUCUCAAUUUGCCUUTT (SEQ ID NO: 123), antisense AAGGCAAAUUGAGACAAGATT (SEQ ID NO: 287) (sugars from the 5' end r19 d2, backbone not given here)”: 1.17 fold and 0.22 log2.
Taken in the same sequence, the figures for “RAG7-150: saRNA duplex; sense UGUUUUCUGCUUUUCCUGCTT (SEQ ID NO: 32), antisense GCAGGAAAAGCAGAAAACATT (SEQ ID NO: 196) (sugars from the 5' end r19 d2, backbone not given here)” were 1.48 fold and 0.56 log2.
Taken in the same sequence, the figures for “RAG7-142: saRNA duplex; sense GCUUUUCCUGCUCUUUGUCTT (SEQ ID NO: 164), antisense GACAAAGAGCAGGAAAAGCTT (SEQ ID NO: 328) (sugars from the 5' end r19 d2, backbone not given here)” were 1.10 fold and 0.14 log2.
With “RAG7-149: saRNA duplex; sense GUUUUCUGCUUUUCCUGCUTT (SEQ ID NO: 99), antisense AGCAGGAAAAGCAGAAAACTT (SEQ ID NO: 263) (sugars from the 5' end r19 d2, backbone not given here)”, the “Fold of changes in relative LHPP mRNA expression level” value worked out at 1.22 fold and the “Fold of changes in relative LHPP mRNA expression level (log2)” value stood at 0.29 log2.
With “RAG7-146: saRNA duplex; sense UUCUGCUUUUCCUGCUCUUTT (SEQ ID NO: 10), antisense AAGAGCAGGAAAAGCAGAATT (SEQ ID NO: 174) (sugars from the 5' end r19 d2, backbone not given here)”, the “Fold of changes in relative LHPP mRNA expression level” value was found to be 1.69 fold and the “Fold of changes in relative LHPP mRNA expression level (log2)” value was 0.76 log2.
Taken in the same sequence, the figures for “RAG7-851: saRNA duplex; sense CUUGAAAGGUUCCGAGGGGTT (SEQ ID NO: 163), antisense CCCCUCGGAACCUUUCAAGTT (SEQ ID NO: 327) (sugars from the 5' end r19 d2, backbone not given here)” were 1.10 fold and 0.14 log2.
Taken in the same sequence, the figures for “RAG7-902: saRNA duplex; sense CUCAAAGCUAUGUUGGACCTT (SEQ ID NO: 50), antisense GGUCCAACAUAGCUUUGAGTT (SEQ ID NO: 214) (sugars from the 5' end r19 d2, backbone not given here)” were 1.38 fold and 0.46 log2.
Taken in the same sequence, the figures for “RAG7-186: saRNA duplex; sense CUUGUCUCAAUUUGCCUUUTT (SEQ ID NO: 78), antisense AAAGGCAAAUUGAGACAAGTT (SEQ ID NO: 242) (sugars from the 5' end r19 d2, backbone not given here)” were 1.28 fold and 0.35 log2.
With “RAG7-31: saRNA duplex; sense UGCACCCGGUCUUCUUGCCTT (SEQ ID NO: 94), antisense GGCAAGAAGACCGGGUGCATT (SEQ ID NO: 258) (sugars from the 5' end r19 d2, backbone not given here)”, the “Fold of changes in relative LHPP mRNA expression level” value was 1.23 fold and the “Fold of changes in relative LHPP mRNA expression level (log2)” value was determined as 0.30 log2.
The matching figures for “RAG7-174: saRNA duplex; sense UGCCUUUGACCUUUCUUAGTT (SEQ ID NO: 49), antisense CUAAGAAAGGUCAAAGGCATT (SEQ ID NO: 213) (sugars from the 5' end r19 d2, backbone not given here)”: 1.38 fold and 0.47 log2.
Taken in the same sequence, the figures for “RAG7-832: saRNA duplex; sense CCAUUGAGGAAACUCCUCCTT (SEQ ID NO: 139), antisense GGAGGAGUUUCCUCAAUGGTT (SEQ ID NO: 303) (sugars from the 5' end r19 d2, backbone not given here)” were 1.14 fold and 0.19 log2.
The matching figures for “RAG7-911: saRNA duplex; sense CUUUGAAAGCUCAAAGCUATT (SEQ ID NO: 160), antisense UAGCUUUGAGCUUUCAAAGTT (SEQ ID NO: 324) (sugars from the 5' end r19 d2, backbone not given here)”: 1.11 fold and 0.15 log2.
As to “RAG7-916: saRNA duplex; sense CUCUUCUUUGAAAGCUCAATT (SEQ ID NO: 33), antisense UUGAGCUUUCAAAGAAGAGTT (SEQ ID NO: 197) (sugars from the 5' end r19 d2, backbone not given here)”, the “Fold of changes in relative LHPP mRNA expression level” value came out at 1.48 fold and the “Fold of changes in relative LHPP mRNA expression level (log2)” value is given as 0.56 log2.
The matching figures for “RAG7-145: saRNA duplex; sense UCUGCUUUUCCUGCUCUUUTT (SEQ ID NO: 9), antisense AAAGAGCAGGAAAAGCAGATT (SEQ ID NO: 173) (sugars from the 5' end r19 d2, backbone not given here)”: 1.71 fold and 0.77 log2.
With “RAG7-137: saRNA duplex; sense UCCUGCUCUUUGUCCGCUGTT (SEQ ID NO: 151), antisense CAGCGGACAAAGAGCAGGATT (SEQ ID NO: 315) (sugars from the 5' end r19 d2, backbone not given here)”, the “Fold of changes in relative LHPP mRNA expression level” value came to 1.12 fold and the “Fold of changes in relative LHPP mRNA expression level (log2)” value is on record as 0.16 log2.
